Test results published in US20250230147A1, “LACTAMS AS CBL-B INHIBITORS” (Genentech, Inc., priority 2021, published 2025).
Where a name gives a salt, the structure may show the parent alone.

Tests used:
Cbl-b = Cbl-b (Homo sapiens (Human), UniProt Q13191); test: Cbl-b LCK Ub TR-FRET assay (Cbl-b Lck HTRF); format: biochemical
Summary of the method: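 TR-FRET (340 nm excitation, 615/665 nm emission) read after adding HA-ubiquitin–UBE2D2 thioester, anti-HA-D2 and streptavidin-Eu. Beforehand, compounds incubated 60 min with biotinylated Cbl-b, then 90 min with His-LCK and ATP (1 mM in 2× mix); IC50 from 10 concentrations, DMSO high and no-LCK low controls.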

c-Cbl = c-Cbl (Homo sapiens (Human), UniProt P22681); test: C-Cbl LCK Ub TR-FRET assay (c-cbl Lck HTRF); format: biochemical; settings: for (fold-selectivity): C-cbl Lck HTRF IC50 relative to Cbl-b Lck HTRF IC50
Chain of c-Cbl (P22681 47-435): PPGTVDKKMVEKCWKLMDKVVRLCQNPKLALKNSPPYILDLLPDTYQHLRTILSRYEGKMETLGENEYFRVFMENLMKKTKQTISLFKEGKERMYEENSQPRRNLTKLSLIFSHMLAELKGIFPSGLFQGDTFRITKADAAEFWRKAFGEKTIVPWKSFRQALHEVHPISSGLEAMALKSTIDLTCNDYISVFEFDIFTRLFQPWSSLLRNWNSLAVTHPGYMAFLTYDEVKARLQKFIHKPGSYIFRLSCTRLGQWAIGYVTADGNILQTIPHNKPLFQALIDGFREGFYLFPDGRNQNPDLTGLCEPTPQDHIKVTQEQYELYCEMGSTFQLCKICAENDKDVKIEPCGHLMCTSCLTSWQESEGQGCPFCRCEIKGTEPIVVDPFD
Summary of the method: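 Detection reagents added, brief spin, 20 min RT. IC50 fit normalized to no-LCK (low) and DMSO (high) controls.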

Chain of Cbl-b (Q13191 40-426): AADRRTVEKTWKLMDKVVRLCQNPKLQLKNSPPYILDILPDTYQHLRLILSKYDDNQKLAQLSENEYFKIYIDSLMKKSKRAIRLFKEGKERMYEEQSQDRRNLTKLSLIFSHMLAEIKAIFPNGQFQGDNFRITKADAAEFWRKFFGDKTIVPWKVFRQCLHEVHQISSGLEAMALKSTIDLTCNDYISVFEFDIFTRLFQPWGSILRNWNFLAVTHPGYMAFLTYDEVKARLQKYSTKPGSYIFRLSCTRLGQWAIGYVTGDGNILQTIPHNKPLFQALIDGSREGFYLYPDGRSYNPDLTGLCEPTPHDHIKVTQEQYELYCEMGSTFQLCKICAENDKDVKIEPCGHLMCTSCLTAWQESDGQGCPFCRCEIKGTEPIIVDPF

SMILES: C[C@H](N)c1cc2c(c(C(F)(F)F)c1)CN(c1cccc(C3(Cc4nncn4C)CC(F)(F)C3)c1)C2=O [Compound 384, (S)-6-(1-aminoethyl)-2-(3-(3,3-difluoro-1-((4-methyl-4H-1,2,4-triazol-3-yl)methyl)cyclobutyl)phenyl)-4-(trifluoromethyl)isoindolin-1-one]
- IC50 (Cbl-b): 22 nM
- IC50 (c-Cbl): 25 nM
- (fold-selectivity) (c-Cbl): (1.1x)

SMILES: Cn1cnnc1[C@H](F)C1(c2cccc(N3Cc4c(cc(CN5CC(C)(CF)C5)cc4C(F)(F)F)C3=O)c2)COC1 [Compound 76, (R)-2-(3-(3-(fluoro(4-methyl-4H-1,2,4-triazol-3-yl)methyl)oxetan-3-yl)phenyl)-6-((3-(fluoromethyl)-3-methylazetidin-1-yl)methyl)-4-(trifluoromethyl)isoindolin-1-one]
- IC50 (Cbl-b): 52 nM
- IC50 (c-Cbl): 82 nM
- (fold-selectivity) (c-Cbl): 1.6x

SMILES: Cn1cnnc1C[C@]1(c2cccc(N3Cc4c(cccc4C(F)(F)F)C3=O)c2)C[C@H](F)C1 [Compound 100, 2-(3-((1r,3s)-3-fluoro-1-((4-methyl-4H-1,2,4-triazol-3-yl)methyl)cyclobutyl)phenyl)-4-(trifluoromethyl)isoindolin-1-one]
- IC50 (Cbl-b): 190 nM
- IC50 (c-Cbl): 380 nM
- (fold-selectivity) (c-Cbl): 1.9x

SMILES: Cn1cnnc1CC1(c2cc(Cc3ccccc3)nc(N3Cc4c(cc(CNC5(C)CCC5)cc4C(F)(F)F)C3=O)c2)CCC1 [Compound 241, 2-(6-benzyl-4-(1-((4-methyl-4H-1,2,4-triazol-3-yl)methyl)cyclo-butyl)pyridin-2-yl)-6-(((1-methylcyclobutyl)amino)methyl)-4-(trifluoromethyl)isoindolin-1-one]
- IC50 (Cbl-b): 21 nM
- IC50 (c-Cbl): 16 nM
- (fold-selectivity) (c-Cbl): (0.77x)

SMILES: Cn1cnnc1[C@H](F)C1(c2cccc(N3Cc4c(Cl)cccc4C3=O)c2)COC1 [Compound 204, (R)-4-chloro-2-(3-(3-(fluoro(4-methyl-4H-1,2,4-triazol-3-yl)methyl)oxetan-3-yl)phenyl)isoindolin-1-one]
- IC50 (Cbl-b): 210 nM
- IC50 (c-Cbl): 660 nM
- (fold-selectivity) (c-Cbl): 3.1x

SMILES: Cn1cnnc1CC1(c2cccc(N3Cc4c(cc(CNC56CC(C)(C5)C6)cc4C(F)(F)F)C3=O)c2)CC(F)(F)C1 [Compound 354, 2-(3-(3,3-difluoro-1-((4-methyl-4H-1,2,4-triazol-3-yl)methyl)cyclobutyl)phenyl)-6-(((3-methylbicyclo[1.1.1]pentan-1-yl)amino)methyl)-4-(trifluoromethyl)isoindolin-1-one formate]
- IC50 (Cbl-b): 13 nM
- IC50 (c-Cbl): 7 nM

SMILES: CC[C@H](C)Nc1cc(C2(Cc3nncn3C)COC2)cc(N2Cc3c(cccc3C(F)(F)F)C2=O)n1 [Compound 481, (S)-2-(6-(sec-butylamino)-4-(3-((4-methyl-4H-1,2,4-triazol-3-yl)methyl)oxetan-3-yl)pyridin-2-yl)-4-(trifluoromethyl)isoindolin-1-one]
- IC50 (Cbl-b): 110 nM
- IC50 (c-Cbl): 420 nM
- (fold-selectivity) (c-Cbl): (3.7x)

SMILES: CN1CCN(Cc2cc3c(c(C(F)(F)F)c2)CN(c2cccc(C4(Cc5nncn5C)CC(F)(F)C4)c2)C3=O)CC1C1CC1 (stereo not shown) [Compound 403, 6-((3-cyclopropyl-4-methylpiperazin-1-yl)methyl)-2-(3-(3,3-difluoro-1-((4-methyl-4H-1,2,4-triazol-3-yl)methyl)cyclobutyl)phenyl)-4-(trifluoromethyl)isoindolin-1-one]
- IC50 (Cbl-b): 45 nM
- IC50 (c-Cbl): 45 nM
- (fold-selectivity) (c-Cbl): (1.0x)

SMILES: CCCC1(O)CN(Cc2cc3c(c(C(F)(F)F)c2)CN(c2cccc(C4([C@H](F)c5nncn5C)COC4)c2)C3=O)C1 [Compound 172, (S)-2-(3-(3-(fluoro(4-methyl-4H-1,2,4-triazol-3-yl)methyl)oxetan-3-yl)phenyl)-6-((3-hydroxy-3-propylazetidin-1-yl)methyl)-4-(trifluoromethyl)isoindolin-1-one]
- IC50 (Cbl-b): 180 nM
- IC50 (c-Cbl): 520 nM
- (fold-selectivity) (c-Cbl): 2.9x

SMILES: CC(C)[C@H]1CN(CC(F)(F)F)CCN1Cc1cc2c(c(C(F)(F)F)c1)CN(c1cccc(C3([C@@H](F)c4nncn4C)COC3)c1)C2=O [Compound 202, 2-(3-(3-((R)-fluoro(4-methyl-4H-1,2,4-triazol-3-yl)methyl)oxetan-3-yl)phenyl)-6-(((S)-2-isopropyl-4-(2,2,2-trifluoroethyl)piperazin-1-yl)methyl)-4-(trifluoromethyl)isoindolin-1-one]
- IC50 (Cbl-b): 150 nM
- IC50 (c-Cbl): 400 nM
- (fold-selectivity) (c-Cbl): 2.6x

SMILES: C[C@@H]1COCCN1c1cc(C2(Cc3nncn3C)COC2)cc(N2Cc3c(cccc3C(F)(F)F)C2=O)n1 [Compound 490, (R)-2-(4-(3-((4-methyl-4H-1,2,4-triazol-3-yl)methyl)oxetan-3-yl)-6-(3-methylmorpholino)pyridin-2-yl)-4-(trifluoromethyl)isoindolin-1-one]
- IC50 (Cbl-b): 3300 nM
- IC50 (c-Cbl): 3500 nM
- (fold-selectivity) (c-Cbl): (1.0x)

SMILES: Cn1cnnc1CC1(c2cccc(N3Cc4c(cc(CN)cc4C(F)(F)F)C3=O)c2)COC1 [Compound 66, 6-(aminomethyl)-2-(3-(3-((4-methyl-4H-1,2,4-triazol-3-yl)methyl)oxetan-3-yl)phenyl)-4-(trifluoromethyl)isoindolin-1-one formate]
- IC50 (Cbl-b): 76 nM
- IC50 (c-Cbl): 100 nM

SMILES: CC(C)[C@H]1CNCCN1Cc1cc2c(c(C(F)(F)F)c1)CN(c1cccc(C3([C@@H](F)c4nncn4C)COC3)c1)C2=O [Compound 96, 2-(3-(3((R)-fluoro(4-methyl-4H-1,2,4-triazol-3-yl)methyl)oxetan-3-yl)phenyl)-6-(((S)-2-isopropylpiperazin-1-yl)methyl)-4-(trifluoromethyl)isoindolin-1-one]
- IC50 (Cbl-b): 12 nM
- IC50 (c-Cbl): 18 nM
- (fold-selectivity) (c-Cbl): 1.5x

SMILES: Cn1cnnc1CC1(c2cc(NC3C4CCC3C4)nc(N3Cc4c(cccc4C(F)(F)F)C3=O)c2)COC1 (stereo not shown) [Compound 382, 2-(6-(bicyclo[2.1.1]hexan-5-ylamino)-4-(3-((4-methyl-4H-1,2,4-triazol-3-yl)methyl)oxetan-3-yl)pyridin-2-yl)-4-(trifluoromethyl)isoindolin-1-one]
- IC50 (Cbl-b): 820 nM
- IC50 (c-Cbl): 20000 nM
- (fold-selectivity) (c-Cbl): (24x)

SMILES: Cn1cnnc1CC1(c2cccc(N3Cc4c(cc(CNCC5COC5)cc4C(F)(F)F)C3=O)c2)CC(F)(F)C1 [Compound 368, 2-(3-(3,3-difluoro-1-((4-methyl-4H-1,2,4-triazol-3-yl)methyl)cyclobutyl)phenyl)-6-(((oxetan-3-ylmethyl)amino)methyl)-4-(trifluoromethyl)isoindolin-1-one]
- IC50 (Cbl-b): 20 nM
- IC50 (c-Cbl): 14 nM
- (fold-selectivity) (c-Cbl): (0.72x)

SMILES: CCC1(O)CN(Cc2cc3c(c(C(F)(F)F)c2)CN(c2cccc(C4([C@H](F)c5nncn5C)COC4)c2)C3=O)C1 [Compound 168, (S)-6-((3-ethyl-3-hydroxyazetidin-1-yl)methyl)-2-(3-(3-(fluoro(4-methyl-4H-1,2,4-triazol-3-yl)methyl)oxetan-3-yl)phenyl)-4-(trifluoromethyl)isoindolin-1-one]
- IC50 (Cbl-b): 180 nM
- IC50 (c-Cbl): 380 nM
- (fold-selectivity) (c-Cbl): 2.1x

SMILES: C[C@H](NC1(C)CCC1)c1cc2c(c(C(F)(F)F)c1)CN(c1cccc(C3(Cc4nncn4C)CC(F)(F)C3)c1)C2=O [Compound 246, (S)-2-(3-(3,3-difluoro-1-((4-methyl-4H-1,2,4-triazol-3-yl)methyl)-cyclobutyl)phenyl)-6-(1-((1-methylcyclobutyl)amino)ethyl)-4-(trifluoromethyl)isoindolin-1-one]
- IC50 (Cbl-b): 5.8 nM
- IC50 (c-Cbl): 4.4 nM
- (fold-selectivity) (c-Cbl): (0.76x)

SMILES: Cn1cnnc1C(F)(F)C1(c2cccc(N3Cc4c(cccc4C(F)(F)F)C3=O)c2)CC1 [Compound 49, 2-(3-(1-(difluoro(4-methyl-4H-1,2,4-triazol-3-yl)methyl)-cyclopropyl)phenyl)-4-(trifluoromethyl)isoindolin-1-one]
- IC50 (Cbl-b): 1400 nM
- IC50 (c-Cbl): 2800 nM
- (fold-selectivity) (c-Cbl): 2.0x

SMILES: Cn1cnnc1CC1(c2cccc(N3Cc4c(cc(CNC5(C)CCC5)cc4C(F)F)C3=O)c2)CC(F)(F)C1 [Compound 250, 2-(3-(3,3-difluoro-1-((4-methyl-4H-1,2,4-triazol-3-yl)methyl)cyclo-butyl)phenyl)-4-(difluoromethyl)-6-(((1-methylcyclobutyl)amino)methyl)isoindolin-1-one]
- IC50 (Cbl-b): 12 nM
- IC50 (c-Cbl): 9.3 nM
- (fold-selectivity) (c-Cbl): (0.77x)

SMILES: Cn1cnnc1[C@H](F)C1(c2cccc(N3Cc4c(cc(CN5CC6CC6C5)cc4C(F)(F)F)C3=O)c2)COC1 (stereo partly drawn) [Compound 84, 6-((3-azabicyclo[3.1.0]hexan-3-yl)methyl)-2-(3-(3-((R)-fluoro(4-methyl-4H-1,2,4-triazol-3-yl)methyl)oxetan-3-yl)phenyl)-4-(trifluoromethyl)isoindolin-1-one]
- IC50 (Cbl-b): 62 nM
- IC50 (c-Cbl): 120 nM
- (fold-selectivity) (c-Cbl): 1.9x

SMILES: Cn1cnnc1[C@H](F)C1(c2cccc(N3Cc4c(cc(CN5CCOCC5)cc4C(F)(F)F)C3=O)c2)COC1 [Compound 88, (R)-2-(3-(3-(fluoro(4-methyl-4H-1,2,4-triazol-3-yl)methyl)oxetan-3-yl)phenyl)-6-(morpholinomethyl)-4-(trifluoromethyl)isoindolin-1-one]
- IC50 (Cbl-b): 100 nM
- IC50 (c-Cbl): 210 nM
- (fold-selectivity) (c-Cbl): 2.1x

SMILES: Cn1cnnc1[C@@H](F)C1(c2cccc(N3Cc4c(cc(CN5CCC56COC6)cc4C(F)(F)F)C3=O)c2)COC1 [Compound 176, (S)-6-(6-oxa-1-azaspiro[3.3]heptan-1-ylmethyl)-2-(3-(3-(fluoro(4-methyl-4H-1,2,4-triazol-3-yl)methyl)oxetan-3-yl)phenyl)-4-(trifluoromethyl)isoindolin-1-one]
- IC50 (Cbl-b): 350 nM
- IC50 (c-Cbl): 1300 nM
- (fold-selectivity) (c-Cbl): 3.5x
